Laboratory results reported in patent US20150126530A1, “Novel Substituted Imidazopyrimidines as Gpbar1 Receptor Modulators” (Torrent Pharmaceuticals Limited., priority 2011, published 2015).

molecular target: T1, human TGR5 (Homo sapiens, UniProt Q8TDU6); assay: cAMP Responsive Element (CRE)-Reporter Assay; assay type: cell-based; conditions: luciferase activity relative to vehicle control, five hours, CHO cells transfected with human TGR5 and CRE-luciferase
T1 construct: host or cells: CHO cells (ATCC)
T1 sequence (Q8TDU6 1-330): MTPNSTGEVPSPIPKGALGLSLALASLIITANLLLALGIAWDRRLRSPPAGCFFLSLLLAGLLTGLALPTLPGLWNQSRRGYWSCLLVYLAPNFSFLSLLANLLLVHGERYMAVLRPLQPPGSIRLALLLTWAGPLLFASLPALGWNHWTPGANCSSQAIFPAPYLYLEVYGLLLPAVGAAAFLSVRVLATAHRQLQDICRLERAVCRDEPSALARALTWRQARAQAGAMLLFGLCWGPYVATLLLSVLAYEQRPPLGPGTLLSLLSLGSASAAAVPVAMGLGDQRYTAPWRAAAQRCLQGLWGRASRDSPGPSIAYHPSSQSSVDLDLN
Description: (A) cAMP Responsive Element (CRE)-Reporter Assay:
CHO cells (ATCC) were transfected with human TGR5 (oriGene) and CRE-luciferase reporter vector. Transfected cells were treated with vehicle control or test compounds (Conc 10 μM) for five hours and then lysed. Cell lysates were monitored for luciferase acivity. Increase in luciferase activity is considered as a result of TGR5 activation. Results were expressed as fold induction as compared to vehicle control.
Results are summarized in Table 2 where, + indicates 1.5-2 fold while ++, +++, ++++ indicate 2-3 fold, 3-4 fold, and >4 fold induction respectively relative to vehicle control when tested at 10 μM concentration.

First: CN(C(=O)c1c(-c2ccc(S(=O)(=O)N(C)C)cc2)nc2ncccn12)c1ccc(Cl)cc1 [compound 37, N-(4-chlorophenyl)-2-[4-(dimethylsulfamoyl)phenyl]-N-methylimidazo[1,2-a]pyrimidine-3-carboxamide]
Second: CN(C(=O)c1c(-c2ccc(Cl)cc2)nc2ncccn12)c1ccc(S(=O)(=O)N(C)C)cc1 [compound 24, 2-(4-chlorophenyl)-N-[4-(dimethylsulfamoyl)phenyl]-N-methylimidazo[1,2-a]pyrimidine-3-carboxamide]
The fold induction at 10 µM of the first is lower: 1.5 to 2 for the first, 2 to 3 for the second.

First: CN(C(=O)c1c(-c2ccc(Cl)cc2Cl)nc2ncccn12)c1ccc(F)cc1 [compound 21, 2-(2,4-dichlorophenyl)-N-(4-fluorophenyl)-N-methylimidazo[1,2-a]pyrimidine-3-carboxamide]
Second: COc1ccc(-c2nc3ncccn3c2C(=O)N(C)c2ccc(F)cc2)cc1F [compound 41, 2-(3-fluoro-4-methoxyphenyl)-N-(4-fluorophenyl)-N-methylimidazo[1,2-a]pyrimidine-3-carboxamide]
The fold induction at 10 µM of the first is higher: 3 to 4 for the first, 2 to 3 for the second.

First: CN(C(=O)c1c(-c2ccc(Cl)cc2)nc2ncccn12)c1ccc(Cl)cc1 [Compound no. 5, N,2-bis(4-chlorophenyl)-N-methylimidazo[1,2-a]pyrimidine-3-carboxamide]
Second: COc1ccc(-c2nc3ncccn3c2C(=O)N(C)c2ccc(Cl)cc2)cc1 [compound 16, N-(4-chlorophenyl)-2-(4-methoxyphenyl)-N-methylimidazo[1,2-a]pyrimidine-3-carboxamide]
The fold induction at 10 µM of the first is higher: > 4 for the first, 2 to 3 for the second.

Compared with `CN(C(=O)c1c(-c2ccccn2)nc2ncccn12)c1ccc(Cl)cc1` [Compound no. 11, N-(4-chlorophenyl)-N-methyl-2-(pyridin-2-yl)imidazo[1,2-a]pyrimidine-3-carboxamide], `CN(C(=O)c1c(-c2ccccc2C(F)(F)F)nc2ncccn12)c1ccc(Cl)cc1` [compound 23, N-(4-chlorophenyl)-N-methyl-2-[2-(trifluoromethyl)phenyl]imidazo[1,2-a]pyrimidine-3-carboxamide] is higher in fold induction at 10 µM: 1.5 to 2 for the first, 3 to 4 for the second.

`COc1ccc(-c2nc3ncccn3c2C(=O)N(C)c2ccc(Cl)cc2)cc1F` [compound 44, N-(4-chlorophenyl)-2-(3-fluoro-4-methoxyphenyl)-N-methylimidazo[1,2-a]pyrimidine-3-carboxamide] and `COc1ccc(-c2nc3ncccn3c2C(=O)N(C)c2ccc(Cl)cc2)cc1OC` [compound 10, N-(4-chlorophenyl)-2-(3,4-dimethoxyphenyl)-N-methylimidazo[1,2-a]pyrimidine-3-carboxamide] fall in the same range of fold induction at 10 µM: 3 to 4 for the first, 3 to 4 for the second.

Compared with `COc1ccc(N(C)C(=O)c2c(-c3ccc(Cl)cc3)nc3ncccn23)cc1OC` [compound 19, 2-(4-chlorophenyl)-N-(3,4-dimethoxyphenyl)-N-methylimidazo[1,2-a]pyrimidine-3-carboxamide], `CN(C(=O)c1c(-c2ccc(Cl)cc2)nc2ncccn12)c1ccc(O)c(O)c1` [compound 27, 2-(4-chlorophenyl)-N-(3,4-dihydroxyphenyl)-N-methylimidazo[1,2-a]pyrimidine-3-carboxamide] is lower in fold induction at 10 µM: 2 to 3 for the first, 1.5 to 2 for the second.

`CN(C(=O)c1c(-c2ccc(Cl)cc2)nc2ncccn12)c1ccc2c(c1)CCC2` [Compound no. 4, 2-(4-chlorophenyl)-N-(2,3-dihydro-1H-inden-5-yl)-N-methylimidazo[1,2-a]pyrimidine-3-carboxamide] and `CN(C(=O)c1c(-c2ccc(F)cc2)nc2ncccn12)c1ccc2c(c1)CCC2` [Compound no. 6, N-(2,3-dihydro-1H-inden-5-yl)-2-(4-fluorophenyl)-N-methylimidazo[1,2-a]pyrimidine-3-carboxamide] fall in the same range of fold induction at 10 µM: 3 to 4 for the first, 3 to 4 for the second.

`O=C(Nc1ccc(Cl)cc1)c1c(-c2ccc(F)cc2)nc2ncccn12` [compound 32, N-(4-chlorophenyl)-2-(4-fluorophenyl)imidazo[1,2-a]pyrimidine-3-carboxamide] and `O=C(Nc1ccc(F)cc1F)c1c(-c2ccc(F)cc2)nc2ncccn12` [compound 39, N-(2,4-difluorophenyl)-2-(4-fluorophenyl)imidazo[1,2-a]pyrimidine-3-carboxamide] fall in the same range of fold induction at 10 µM: 1.5 to 2 for the first, 1.5 to 2 for the second.

Compared with `CN(C(=O)c1c(Oc2ccccc2)nc2ncccn12)c1ccc(Cl)cc1` [compound 47, N-(4-chlorophenyl)-N-methyl-2-phenoxyimidazo[1,2-a]pyrimidine-3-carboxamide], `CN(C(=O)c1c(Oc2ccc(Cl)cc2)nc2ncccn12)c1ccc(Cl)cc1` [compound 48, 2-(4-chlorophenoxy)-N-(4-chlorophenyl)-N-methylimidazo[1,2-a]pyrimidine-3-carboxamide] is lower in fold induction at 10 µM: 3 to 4 for the first, 2 to 3 for the second.

First: COc1ccc(-c2nc3ncccn3c2C(=O)N(C)c2ccc(F)cc2F)cc1F [compound 43, N-(2,4-difluorophenyl)-2-(3-fluoro-4-methoxyphenyl)-N-methylimidazo[1,2-a]pyrimidine-3-carboxamide]
Second: CN(C(=O)c1c(-c2ccc3c(c2)OCO3)nc2ncccn12)c1ccc(Cl)cc1 [compound 29, 2-(1,3-benzodioxol-5-yl)-N-(4-chlorophenyl)-N-methylimidazo[1,2-a]pyrimidine-3-carboxamide]
The fold induction at 10 µM of the first is lower: 1.5 to 2 for the first, 3 to 4 for the second.

`COc1ccc(N(C)C(=O)c2c(Oc3ccc(F)cc3)nc3ncccn23)cc1` [compound 52, 2-(4-fluorophenoxy)-N-(4-methoxyphenyl)-N-methylimidazo[1,2-a]pyrimidine-3-carboxamide] and `COc1ccc(Oc2nc3ncccn3c2C(=O)N(C)c2ccc(Cl)cc2)cc1` [compound 49, N-(4-chlorophenyl)-2-(4-methoxyphenoxy)-N-methylimidazo[1,2-a]pyrimidine-3-carboxamide] fall in the same range of fold induction at 10 µM: 3 to 4 for the first, 3 to 4 for the second.

First: CN(C(=O)c1c(-c2ccc(-c3ccccc3)cc2)nc2ncccn12)c1ccc2c(c1)CCC2 [compound 9, 2-(biphenyl-4-yl)-N-(2,3-dihydro-1H-inden-5-yl)-N-methylimidazo[1,2-a]pyrimidine-3-carboxamide]
Second: CN(C(=O)c1c(-c2ccc(-c3ccccc3)cc2)nc2ncccn12)c1ccc(Cl)cc1 [compound 8, 2-(biphenyl-4-yl)-N-(4-chlorophenyl)-N-methylimidazo[1,2-a]pyrimidine-3-carboxamide]
The fold induction at 10 µM of the first is lower: 2 to 3 for the first, 3 to 4 for the second.

Compared with `CN(C(=O)c1c(Oc2ccc(Cl)cc2)nc2ncccn12)c1ccc(F)cc1` [compound 51, 2-(4-chlorophenoxy)-N-(4-fluorophenyl)-N-methylimidazo[1,2-a]pyrimidine-3-carboxamide], `CN(C(=O)c1c(-c2ccccc2)nc2ncccn12)c1ccc(CC(=O)O)cc1` [Compound no. 3, (4-{methyl[(2-phenylimidazo[1,2-a]pyrimidin-3-yl)carbonyl]amino}phenyl)acetic acid] is lower in fold induction at 10 µM: 2 to 3 for the first, 1.5 to 2 for the second.

`CN(C(=O)c1c(-c2ccc(O)c(O)c2)nc2ncccn12)c1ccc2c(c1)CCC2` [compound 15, N-(2,3-dihydro-1H-inden-5-yl)-2-(3,4-dihydroxyphenyl)-N-methylimidazo[1,2-a]pyrimidine-3-carboxamide] and `CN(C(=O)c1c(-c2ccccc2)nc2ncc(-c3ccccc3)cn12)c1ccc(Cl)cc1` [compound 12, N-(4-chlorophenyl)-N-methyl-2,6-diphenylimidazo[1,2-a]pyrimidine-3-carboxamide] fall in the same range of fold induction at 10 µM: 2 to 3 for the first, 2 to 3 for the second.
